Data from patent US20110009435A1, “HETERO BICYCLIC CARBOXAMIDE DERIVATIVES AND THEIR PHARMACEUTICAL USE AND COMPOSITIONS” (Pfizer, Inc., priority 2007, published 2011).

What was measured:
Format in all cases: biochemical
Human recombinant MMP-14 = target: T1, Human recombinant MMP-14 (Homo sapiens, UniProt P50281); experiment: In vitro MMP inhibition assay, MMP-14 catalytic domain (fluorogenic peptide substrate cleavage, Ki); conditions: human MMP-14, catalytic domain (CD); read-out: hMMP Ki 14/CD
T1 construct: The MMP-14 cDNA may be used to express the catalytic domain enzyme in E. coli inclusion bodies; made in house
Description: (§1) Matrix Metalloproteinase inhibitor compounds were analyzed in in vitro MMP Inhibition assays to determine their ability to inhibit the MMP cleavage of peptide substrates. Inhibition constants (Ki) were calculated from the assayed compound-MMP interactions.
(§2) Human recombinant MMP-1, MMP-2, MMP-3, MMP-7, MMP-9, MMP-12, MMP-13, MMP-14 and MMP-15 were used in these assays. The enzymes are prepared following known laboratory procedures. Protocols for the preparation and use of these enzymes are available in the scientific literature. See, e.g., Enzyme Nomenclature (Academic Press, San Diego, Calif., 1992) and the citations therein. See also Frije et al., J. Biol. Chem., 26(24), 16766-73 (1994).
The MMP-14 cDNA may be used to express the catalytic domain enzyme in E. coli inclusion bodies. Then the enzyme is solubilized in urea, purified on a preparative […] reverse phase HPLC column, and refolded in the presence of zinc acetate and purified for use.
(§3) The fluorogenic, methoxycoumarin-containing polypeptide substrate MCA-ArgProLeuGlyLeuDpaAlaArgGluArgNH2 was used as the MMP substrate in the MMP inhibition assays for human recombinant MMP-1, MMP-2, MMP-7, MMP-9, MMP-12, MMP-13, MMP-14 and MMP-15. Here, “MCA” is 7-methoxycoumarin-4-yl acetyl and “Dpa” is 3-(2,4-dinitrophenyl)-L-2,3-di-aminopropionyl group. In the absence of MMP inhibitory activity, the substrate is cleaved at the Gly-Leu peptide bond. The cleavage separates the highly fluorogenic peptide from the 2,4-dinitrophenyl quencher, resulting in an increase of fluorescent intensity.
(§4) For the human MMP-1, MMP-2, MMP-7, MMP-9, MMP-12, MMP-13, MMP-14 and MMP-15 assays, dilutions of the inhibitors (or salts thereof) were prepared in 100% dimethyl sulfoxide (DMSO). The stock solutions were diluted in Buffer A (100 mM Tris-HCl, 100 mM NaCl, 10 mM CaCl2, 0.005% polyoxyethylene 23 lauryl ether, pH 7.5) to obtain solutions with different compound concentrations, i.e., assay solutions with different concentrations of the assayed MMP inhibitory compound in 1% DMSO. The experiment controls contained the same amount of Buffer A/DMSO as the assayed sample, but contained no inhibitor.
(§5) To determine Ki, the inhibitor samples are incubated at room temperature for 1 hr in the presence of enzyme and then 4 μM of appropriate MMP substrate was added, and samples were analyzed on a Tecan SpectraFlour Plus plate reader. The excitation wavelength is 330 nm, and the emission (fluorescence) wavelength is 420 nm. In the absence of MMP inhibitory activity, the substrate is cleaved at the Gly-Leu bond resulting in an increase of relative fluorescence. Inhibition is observed as a reduced rate of increase in relative fluorescence.
(§6) The inhibitors are analyzed using a single low enzyme concentration with a single substrate concentration fixed at or below the Km. This protocol is a modification of method by Knight et al., FEBS Lett., 296(3), 263-266 (1992). Apparent inhibitory constants are determined by non-linear regression of reaction velocity as a function of inhibitor and enzyme concentration using Morrison's equation, as described by Kuzmic, Anal. Biochem. 286, 45-50 (2000). Modifications were made in the non-linear regression method to allow a common control reaction rate and effective enzyme concentration to be shared between all dose-response relationships on a given assay plate. […]

[1] = target: T2, catalytic domain of human recombinant MMP-3 (Homo sapiens, UniProt P08254); experiment: In vitro MMP inhibition assay, MMP-3 catalytic domain (fluorogenic peptide substrate cleavage, Ki); conditions: human MMP-3, catalytic domain (CD); read-out: hMMP Ki 03/CD
T2 construct: made in house
T2 sequence (P08254 100-272 limits assumed): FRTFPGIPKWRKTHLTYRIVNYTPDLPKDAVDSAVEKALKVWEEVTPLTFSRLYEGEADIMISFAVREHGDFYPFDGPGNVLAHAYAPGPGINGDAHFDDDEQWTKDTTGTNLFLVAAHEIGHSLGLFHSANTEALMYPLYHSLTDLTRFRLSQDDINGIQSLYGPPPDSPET
Description: as §1, §2
The catalytic domain MMP-3 cDNA may be used to express the catalytic domain enzyme in E. coli inclusion bodies. Then the enzyme is solubilized in urea, purified on a preparative […] reverse phase HPLC column, and refolded in the presence of zinc acetate and purified for use.
The fluorogenic, methoxycoumarin-containing polypeptide substrate Mca-Arg-Pro-Lys-Pro-Val-Glu-Nva-Trp-Arg-Lys(Dnp)-NH2 (Bachem catalog number M-2110) was used as the MMP substrate in the MMP inhibition assays for catalytic domain of human recombinant MMP-3 (which refers to the catalytic domain of stromelysin). Here, “MCA” is 7-methoxycoumarin-4-yl acetyl and “Dpa” is 3-(2,4-dinitrophenyl)-L-2,3-di-aminopropionyl group. In the absence of MMP inhibitory activity, the substrate is cleaved at the Gly-Leu peptide bond. The cleavage separates the highly fluorogenic peptide from the 2,4-dinitrophenyl quencher, resulting in an increase of fluorescent intensity.
For the human MMP-3 assay, dilutions of the inhibitors (or salts thereof) were prepared in 100% DMSO. The stock solutions were diluted in Buffer B (50 mM N-morpholinoethane sulfonate (“MES”), 100 mM NaCl, 10 mM CaCl2, 0.005% polyoxyethylene 23 lauryl ether, pH 6.0)) to obtain solutions with different compound concentrations, i.e., assay solutions with different concentrations of the assayed MMP inhibitory compound in 1% DMSO. The experiment controls contained the same amount of Buffer B/DMSO as the assayed sample, but contained no inhibitor.
as §5
(§7) The inhibitors are analyzed using a single low enzyme concentration with a single substrate concentration fixed at or below the Km. This protocol is a modification of method by Knight et al., FEBS Lett., 296(3), 263-266 (1992). Apparent inhibitory constants are determined by non-linear regression of reaction velocity as a function of inhibitor and enzyme concentration using Morrison's equation, as described by Kuzmic, Anal. Biochem. 286, 45-50 (2000). Modifications were made in the non-linear regression method to allow a common control reaction rate and effective enzyme concentration to be shared between all dose-response relationships on a given assay plate. Since the substrate concentration was chosen to be at or below the Km, the apparent Ki's from this analysis were reported as Ki's without correction for the influence of substrate.

Human recombinant MMP-13 = target: T3, Human recombinant MMP-13 (Homo sapiens, UniProt P45452); experiment: In vitro MMP inhibition assay, MMP-13 (fluorogenic peptide substrate cleavage, Ki); conditions: human MMP-13, full length (FL); read-out: hMMP Ki 13/FL
T3 construct: made in house; host or cells: baculovirus expression (insect cells)
Description: as §1, §2
The MMP-13 may be obtained as a proenzyme from a full-length cDNA clone using baculovirus expression, as described by V. A. Luckow, “Insect Cell Expression Technology,” Protein Engineering: Principles and Practice, pp. 183-218 (edited by J. L. Cleland et al., Wiley-Liss, Inc., 1996). The expressed proenzyme was first purified over a heparin agarose column, and then over a chelating zinc chloride column. Further details on baculovirus expression systems may be found in, for example, Luckow et al., J. Virol., 67, 4566-79 (1993). See also O'Reilly et al, Baculovirus Expression Vectors: A Laboratory Manual (W. H. Freeman and Co., New York, N.Y., 1992). See also King et al., The Baculovirus Expression System: A Laboratory Guide (Chapman & Hall, London, England, 1992).
All full length MMPs were activated using 4-aminophenylmercuric acetate (“APMA”, Sigma Chemical, St. Louis, Mo.) or trypsin. MMP-9 also was activated using human recombinant MMP-3 following standard cloning and purification techniques.
as §3, §4, §5
as §6, with “(2000).” for “(2000). Modifications were made in the non-linear regression method to allow a common control reaction rate and effective enzyme concentration to be shared between all dose-response relationships on a given assay plate.”

Human recombinant MMP-12 = target: T4, Human recombinant MMP-12 (Homo sapiens, UniProt P39900); experiment: In vitro MMP inhibition assay, MMP-12 catalytic domain (fluorogenic peptide substrate cleavage, Ki); conditions: human MMP-12, catalytic domain (CD); read-out: hMMP Ki 12/CD
T4 construct: The catalytic domain of MMP-12 and MMP-15 enzymes were purchased commercially for these assays; purchased
T4 sequence (P39900 106-263 limits assumed): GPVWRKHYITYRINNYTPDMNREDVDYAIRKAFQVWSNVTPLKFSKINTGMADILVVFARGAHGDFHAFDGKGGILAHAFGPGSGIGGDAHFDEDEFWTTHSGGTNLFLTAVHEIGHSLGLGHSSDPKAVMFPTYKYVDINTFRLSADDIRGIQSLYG
Description: as §1, §2
(§8) The catalytic domain of MMP-12 and MMP-15 enzymes were purchased commercially for these assays.
as §3, §4, §5, §7

Human recombinant MMP-15 = target: T5, Human recombinant MMP-15 (Homo sapiens, UniProt P51511); experiment: In vitro MMP inhibition assay, MMP-15 catalytic domain (fluorogenic peptide substrate cleavage, Ki); conditions: human MMP-15, catalytic domain (CD); read-out: hMMP Ki 15/CD
T5 construct: The catalytic domain of MMP-12 and MMP-15 enzymes were purchased commercially for these assays; purchased
T5 sequence (P51511 132-304 limits assumed): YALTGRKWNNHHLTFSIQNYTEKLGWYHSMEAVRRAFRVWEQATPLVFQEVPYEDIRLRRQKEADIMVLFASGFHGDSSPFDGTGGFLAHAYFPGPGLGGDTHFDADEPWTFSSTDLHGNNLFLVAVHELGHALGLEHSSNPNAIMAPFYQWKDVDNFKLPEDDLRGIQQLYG
Description: as §1, §2, §8, §3, §4, §5, §7

Row | Ki (Human recombinant MMP-14) [nM] | Ki [1] [nM] | Ki (Human recombinant MMP-13) [nM] | Ki (Human recombinant MMP-12) [nM] | Ki (Human recombinant MMP-15) [nM] | SMILES
1 | > 10000 | 1000 | 0.732 | > 10000 | > 10000 | COc1cc(CNC(=O)c2nc3scc(COC[C@H]4CC[C@H](NS(C)(=O)=O)CC4)c3c(=O)[nH]2)ccc1F [Example 18, N-(4-Fluoro-3-methoxybenzyl)-5-[({trans-4-[(methylsulfonyl)amino]cyclohexyl}methoxy)methyl]-4-oxo-3,4-dihydrothieno[2,3-d]pyrimidine-2-carboxamide]
2 | > 10000 | 1640 | 11.4 | > 10000 | > 10000 | COc1cccc(CNC(=O)c2nc3scc(COC[C@@H]4CO[C@@H](CO)CO4)c3c(=O)[nH]2)c1 (relative stereo) [Example 7, N-(3-Methoxybenzyl)-5-(((trans-5-(hydroxymethyl)-1,4-dioxan-2-yl)methoxy)methyl)-4-oxo-3,4-dihydrothieno[2,3-d]pyrimidine-2-carboxamide]
3 | > 10000 | 1220 | 2.48 | > 10000 | > 10000 | COc1cc(CNC(=O)c2nc3scc(COC[C@H]4CC[C@H](NC(C)=O)CC4)c3c(=O)[nH]2)ccc1F [Example 19, 5-({[trans-4-(Acetylamino)cyclohexyl]methoxy}methyl)-N-(4-fluoro-3-methoxybenzyl)-4-oxo-3,4-dihydrothieno[2,3-d]pyrimidine-2-carboxamide]
4 | > 10000 | 1350 | 0.88 | > 10000 | > 10000 | COc1cc(CNC(=O)c2nc3scc(COC[C@H]4CC[C@H](CO)CC4)c3c(=O)[nH]2)ccc1F [Example 9, N-(4-Fluoro-3-methoxybenzyl)-5-(((trans-4-(hydroxymethyl)cyclohexyl)methoxy)methyl)-4-oxo-3,4-dihydrothieno[2,3-d]pyrimidine-2-carboxamide]
